Columns and labels:
DU145-DR cells (ABCB1+) = test: SP analysis (DCV, flow cytometry) in DU145-DR cells; type: cell-based, human; details: 10 μM
Excerpt: (§1) In recent studies, we described the side population (SP) phenotype as a marker that defines a heterogeneous cellular compartment with stem cell-characteristics in various cancer cell lines derived from solid tumors, such as ovarian cancer, breast cancer, and lung cancer.[26],[27]

[1] = system: IGROV-1 SP cells (ABCB1+); test: SP analysis (DCV, flow cytometry) in IGROV-1 SP cells; type: cell-based, human; details: 10 μM
Excerpt: as §1

PC3-DR cells (ABCB1+) = test: SP analysis (DCV, flow cytometry) in PC3-DR cells; type: cell-based, human; details: 10 μM
Excerpt: as §1

K562-R cells [2] = test: Cellular imatinib accumulation assay (U(H)PLC-SIM-MS); type: cell-based, human; details: preincubated 1 h with 10 μM compound, then 1 μM imatinib 2 h
Experimental: After treatment, cells were washed, and the resulting cell pellets were lysed in 200 μL of ice-cold methanol. Lysates were incubated on a tube shaker (Thermomixer C, Eppendorf) for 20 min at 4 °C and 1400 rpm, followed by centrifugation (MicroStar 17R, VWR) at 16000g for 5 min at 4 °C. 180 μL of supernatants were separated from the sediment and dried in a rotary vacuum evaporator (Concentrator plus, Eppendorf) and stored at −80 °C until analysis.
Metabolites were separated using the following gradient: 1% B for 0.2 min, 1% B to 70% B within 0.6 min, 70% B to 90% B within 0.2 min, 90% B for 0.3 min. The UPLC system was coupled to a quadrupole orbitrap mass spectrometer (Exploris 480, Thermo Fischer Scientific) via a HESI electrospray source. […] The spray voltage was set to 3500 V and the ion transfer tube and vaporizer temperatures were set at 350 °C. Sheath gas was used at a flow rate of 60 (arbitrary units (a.u)) and auxiliary gas at a flow rate of 15 (a.u)).
Raw data processing was performed using TraceFinder General Quan 5.0 (Thermo Scientific, San Jose, CA, USA). The ICIS algorithm was used for peak identification and integration with the following parameters Peak detection strategy: Highest peak; Peak threshold type: Area; Threshold: 1; Smoothing: 3; S/N threshold: 3; Tailing Factor: 8. Peaks were manually adjusted when necessary. […]

[3] = Microsomal metabolic stability, mouse; type: in vitro ADME; details: for metabolic stability Mouse, % of compound remaining: after 30 min in MLM, 1 μM; for half-life at 1 µM: mouse, pooled mouse liver microsomes, pH 7.4, MLM, read-out: metabolic stability Mouse t1/2
Experimental: (§2) The stability of the compounds was assessed in pooled human and mouse liver microsomes (final protein concentration 0.5 mg/mL). […] At the appropriate time points, the reactions were stopped by transferring into acetonitrile. After protein precipitation, by centrifugation at 3000 rpm for 20 min at 4 °C, the sample supernatants were analyzed using LC–MS/MS analysis (control compounds were included). The elimination rate constant was determined from the ratio of the ln peak area to time. Half-life (t1/2) and intrinsic clearance (CLint) were calculated using the appropriate formulas.

[4] = Microsomal metabolic stability, human; type: in vitro ADME; details: for metabolic stability Human, % of compound remaining: after 30 min in HLM, 1 μM; for half-life at 1 µM: human, pooled human liver microsomes, pH 7.4, HLM, read-out: metabolic stability Human t1/2
Experimental: as §2

[5] = Hepatocyte stability, mouse; type: in vitro ADME; details: for half-life at 1 h, 1 µM / hepatocyte CLint at 1 h, 1 µM: mouse, cryopreserved mouse hepatocytes; for half-life at 1 h, 1 µM: read-out: hepatocytic stability mouse t1/2; for hepatocyte CLint at 1 h, 1 µM: after 60 min in MH, read-out: hepatocytic stability mouse, CLint
Experimental: Cryopreserved hepatocytes (human and mouse) were used to analyze the stability of the compounds. Hepatocytes (0.5 × 10^6 cells/mL in Williams E medium supplemented with 2 mM L-glutamine and 25 mM N-2-hydroxyethylpiperazin-Ń-ethanesulfonic acid (HEPES)) were preincubated at 37 °C. […] At the appropriate time points, the reactions were stopped by transferring into acetonitrile. After protein precipitation by centrifugation at 3000 rpm for 20 min at 4 °C, the sample supernatants were analyzed by LC–MS/MS analysis (control compounds were included). The elimination rate constant was determined from the ratio of the ln peak area to time. Half-life (t1/2) and intrinsic clearance (CLint) were calculated using the appropriate formulas.

K562-R cells [6] = test: Metabolic activity of K562-R cells, compounds alone (modified MTT assay); type: cell-based, human; details: 10 μM, 72 h, without imatinib; vehicle control = 100%
Experimental: The potential reduction in cell viability was determined using the modified MTT assay.
First, the compounds (10 μM) were applied alone to evaluate their effects per se.
COS-7 (2 × 10^3 cells per well), IGROV-1 SP (2.5 × 10^3 cells per well), A2780 V SP (1.5 × 10^3 cells per well), PC3-DR (4 × 10^3 cells per well), and DU145-DR (3 × 10^3 cells per well) cells were seeded in 96-well plates in triplicates and after 24 h, the compounds were added at the respective concentrations. K562-R and K562 cells (2 × 10^4 cells per well), were treated with the compounds 2 h after seeding. […] A modified MTT colorimetric assay (EZ4U kit, Biomedica) was used to determine the metabolic activity of the tested cells, according to the manufacturer’s instructions. Absorbance was measured and the optical density of the respective FCS-containing medium and of the substrate was subtracted to exclude nonspecific staining. Metabolic activity in the absence of the compounds (CTR, DMSO) was set to 100% as reference.

[7] = system: primary human CML patient samples; test: Colony forming cell (CFC) assay, primary CML patient samples; type: cell-based; details: together with 1 μM of imatinib, once at the beginning of the 14 day assay; compound 10 μM
Excerpt: Frozen peripheral blood mononuclear cells (PBMC) from TKI naïve CML patients and healthy controls were used for the CFC assay as described previously.[46] Briefly, thawed cells were resuspended a semisolid medium (Enriched MethocCult H4435, Stem Cell Technologies) supplemented with the respective compounds and cultured in small culture dishes for 2 weeks. Colonies were counted using an inverted microscope.

MCF7 cells (ABCG2+) = test: SP analysis (DCV, flow cytometry) in MCF7 cells; type: cell-based, human; details: MCF7, 10 μM
Excerpt: as §1

Caco2 cells = test: Caco2 permeability (bidirectional); type: in vitro ADME; details: pH 7.4, 10 μM; for Caco2 permeability Papp B–A: basolateral to apical
Experimental: The medium was changed regularly and on day 20 the permeability study was performed. The monolayers were prepared by rinsing the apical and basolateral surfaces with Hanks Balanced Salt Solution (HBSS) twice at the desired pH and by incubating for 40 min to stabilize the physiological parameters. […] The compounds were diluted with buffer to a concentration of 10 μM (final DMSO concentration ≤1%) and added to the apical or basolateral sides of the cell monolayer. Compound permeability was assessed in duplicates and molecules of known permeability characteristics were used as controls (antipyrine, atenolol, talinolol, and estrone 3-sulfate). To calculate Papp, compound appearance was measured using LC–MS/MS. The efflux ratio was determined for bidirectional assays.

A549 cells (ABCC1+) = test: SP analysis (DCV, flow cytometry) in A549 cells; type: cell-based, human; details: A549, 10 μM
Excerpt: as §1

[8] = system: A2780 V SP cells (ABCB1+); test: SP analysis (DCV, flow cytometry) in A2780 V SP cells; type: cell-based, human; details: 10 μM
Excerpt: as §1

Compound	effect on SP phenotype (DU145-DR cells (ABCB1+))	effect on SP phenotype [1]	effect on SP phenotype (PC3-DR cells (ABCB1+))	intracellular accumulation of imatinib (K562-R cells [2])	metabolic stability Mouse, % of compound remaining [3] [%]	half-life at 1 µM [3] [min]	metabolic stability Human, % of compound remaining [4] [%]	half-life at 1 µM [4] [min]	half-life at 1 h, 1 µM ([5]; MH) [min]	hepatocyte CLint at 1 h, 1 µM [5] [µL/min/1e6 cells]	metabolic activity of K562-R cells, compound alone (K562-R cells [6])	number of colonies (CFC) [7]	effect on SP phenotype (MCF7 cells (ABCG2+))	Caco2 permeability Papp A–B (Caco2 cells; apical to basolateral)	Caco2 permeability Papp B–A (Caco2 cells)	effect on SP phenotype (A549 cells (ABCC1+))	effect on SP phenotype [8]	clearance class ([5]; MH)
CCCc1nc2c(C)cc(-c3nc4ccccc4n3C)cc2n1Cc1ccc(-c2ccccc2C(=O)OC)cc1 [7b, Methyl 4′-((1,7′-dimethyl-2′-propyl-1H,3′H-[2,5′-bibenzo[d]imidazole]-3′-yl)methyl)-[1,1′-biphenyl]-2-carboxylate]	eliminated the SP phenotype	eliminated the SP phenotype	eliminated the SP phenotype	notably restored	3	6	26.3	16.2	13.8	101	inactive	significantly reduced the number of colonies	eliminated the SP phenotype	0.1 10^–6 cms^–1	0.2 10^–6 cms^–1	eliminated the SP phenotype	eliminated the SP phenotype	
CCCc1nc2c(C)cc(-c3nc4ccccc4n3C)cc2n1Cc1ccc(-c2ccccc2C(N)=O)cc1 [7c, 4′-((1,7′-Dimethyl-2′-propyl-1H,3′H-[2,5′-bibenzo[d]imidazole]-3′-yl)methyl)-[1,1′-biphenyl]-2-carboxamide]	eliminated the SP phenotype	eliminated the SP phenotype	eliminated the SP phenotype	notably restored	13.3	8.8	58.1	45.1	44.9	30.9	inactive	significantly reduced the number of colonies	eliminated the SP phenotype		30.8 10^–6 cms^–1	eliminated the SP phenotype	eliminated the SP phenotype	high clearance
